Test results: patent US6727231B1, “Uridine therapy for patients with elevated purine levels” (Repligen Corporation, priority 2000, dated 2004)
“Also recorded” adds a separate entry of the source.

Legend:
[1] = tested on: Patient having increased uric acid in urine and diagnosed with symptoms of PDD; assay: Treatment of Patient 1, who had increased uric acid in urine and was diagnosed with symptoms of PDD; type: in vivo, human
Procedure: Patient 1 was diagnosed with PDD. […], the patient's urine was analyzed, and the urine level of uric acid was 18.1 mg/kg/day. The normal level of uric acid in normal patients at age nine is 8.3+/−2.0 mg/kg/day. The uric acid level in the urine gradually declined to approximately normal levels, however the symptoms of PDD remained.
[…], Patient 1 was treated with a variety of drugs and exercise- and stress-reducing regimens. […] The exercise- and stress-reducing regimen helped in some respects, because Patient 1 was often fatigued. In addition, the low purine diet was continued at times along with vitamin B6 and magnesium. Over these many years, Patient 1 had varying levels of rather minor improvements in their symptoms in response to these and other attempted therapies.
Patient 1 began use of uridine, with an oral dosage of approximately 50 mg/kilogram of body weight per day. […] In particular, Patient 1 tried varying dosages of uridine up to 1000 mg/kg/day.

[2] = tested on: hyperuricosuric patients; details: some of these patients; cited from earlier work
[3] = cited from earlier work
[4] = tested on: hypouricosuric PDD patients; details: single oral doses of 1,000 mg/kg/day; cited from earlier work
[5] = cited from earlier work; remark: listed apart in the source
[6] = Patient 1, oral uridine, comparative narrative data against no uridine

SMILES: C[C@H](N)Cc1ccccc1.C[C@H](N)Cc1ccccc1.O=S(=O)(O)O [Dexedrine®, reference compound]
- Effect of earlier drug treatment on the patient's condition ([1]; Patient): little success or worsening of their condition

SMILES: O=C(CCCN1CCC(O)(c2ccc(Cl)cc2)CC1)c1ccc(F)cc1 [Haldol®, reference compound]
- Effect of earlier drug treatment on the patient's condition ([1]; Patient 1, donor alpha): little success or worsening of their condition

SMILES: COC(=O)C(c1ccccc1)C1CCCCN1.Cl (stereo not drawn) [Ritalin®, reference compound]
- Effect of earlier drug treatment on the patient's condition ([1]; Patient): little success or worsening of their condition

SMILES: Oc1ncnc2[nH]ncc12 [allopurinol]
- Benefit in patients with hyperuricosuria [2]: benefited

SMILES: O=c1ccn([C@@H]2O[C@H](CO)[C@@H](O)[C@H]2O)c(=O)[nH]1 [uridine]
- Improvements upon cessation of uridine therapy ([1]; Patient 1): declined or regressed
- Neurological and neuromuscular symptoms (autistic disorder and ataxia) upon administration ([1]; Patient 1): improved dramatically
- Fine motor skills with uridine [1, 6]: a. Able to use a screwdriver
- Gross motor skills with uridine [1, 6]: d. Hugs normally-finds it easier; also recorded: e. Much less exhaustion and pain; also recorded: b. Does not crash into furniture,
- Speech and language with uridine [1, 6]: b. Very quick to understand jokes,; also recorded: e. Usually makes eye contact
- Benefit at this dosage of uridine ([1]; Patient 1, oral, 150 mg/kg/day): rapid benefits
- Dosage dependence of improvements ([1]; Patient 1, varying dosages up to 1000 mg/kg/day): The higher dosages gave the most improved results
- Adverse effect at higher dosages ([3]; dosages higher than 1000 mg/kg/day, some patients): mild diarrhea
- Toxic effects ([3]; dosages of up to 1000 mg/kg/day, pure uridine): no known toxic effects
- Effect on symptoms in hypouricosuric PDD patients [4]: reduce the symptoms
- Normal plasma concentration of uridine [5]: 2 to 10 µM
